Laboratory results reported in patent publication EP2222702B1, “HUMAN […] SPECIFIC ANTIBODIES” (Cytos Biotechnology AG, priority 2007, dated 2009).
Values joined by “and” are separate entries in the source; they are usually repeats but may differ in a detail not shown here. Equal values may be shown once. Read-outs that look alike come from different tables or passages of the source.

Experiments:
[1] = molecular target: human monoclonal nicotine-specific antibody IgG2-F063 (HCVR SEQ ID NO:28, LCVR SEQ ID NO:31)
Method: (§1) Affinity of antibodies for (S)-(-)-nicotine was determined by equilibrium dialysis using a DispoEquilibriumDialyzer (Harvard Biosciences). Two chambers of the dialyzer were separated by a membrane (10'000 Da cut-off). […] Concentrations of tritium-labeled (S)-(-)-nicotine (Amersham) ranging from 3 to 444 nM were used. Equilibrium dialysis was allowed to proceed for 48-72 h. Aliquots from both sides of the chamber were taken and radioactivity measured in a scintillation counter. Radioactivity corresponding to antibody-bound (S)-(-)-nicotine was calculated by subtracting the radioactivity measured for the chamber containing no antibody from the one containing the antibody. The free (S)-(-)-nicotine concentration was determined from the radioactivity measured for the chamber containing no antibody. The equilibrium dissociation constant (Kd) was derived from the fit of a one-site binding model to the measured bound radioactivity as a function of the free (S)-(-)-nicotine concentration. […]
(§2) We next determined the affinities of mAbs IgG2-F018, -F063, -J004, -J042 and-N049 for the (R)-(+)-isomer of nicotine. This stereoisomer is present in the tobacco plant. In addition, it can be formed by the combustion process during smoking and has qualitatively similar activities on the central nervous system as (S)-(-)-nicotine (Hukkanen J. et al., 2005, Pharmacol. Rev. 57, 79-115). Thus, the binding of a fixed concentration of tritium-labeled (S)-(-)-nicotine (F018: 56 nM; F063, J004, J042, N049: 111 nM) to each of the antibodies was measured by equilibrium dialysis in the presence of increasing concentrations of unlabeled (R)-(+)-nicotine (1 nM to 100 µM). The equilibrium dissociation constant (Kd) was derived from the fit of a one-site competition model to the measured bound radioactivity as a function of the (R)-(+)-nicotine concentration. […] Table 5. Dissociation constants Kd (nM) of antibody-(R)-(+)-nicotine interactions measured by equilibrium dialysis.

[2] = molecular target: human monoclonal nicotine-specific antibody IgG2-J004 (HCVR SEQ ID NO:33, LCVR SEQ ID NO:35)
Method: as §1, §2

[3] = molecular target: human monoclonal nicotine-specific antibody IgG2-J042 (HCVR SEQ ID NO:28, LCVR SEQ ID NO:37)
Method: as §1, §2

[4] = molecular target: human monoclonal nicotine-specific antibody IgG2-N049 (HCVR SEQ ID NO:39, LCVR SEQ ID NO:41)
Method: as §1, §2

[5] = molecular target: human monoclonal nicotine-specific antibody IgG2-F018 (HCVR SEQ ID NO:24, LCVR SEQ ID NO:26); assay: Equilibrium dialysis, affinity and competition; type: binding; conditions: for Cross-reactivity: competition with tritium-labeled (S)-(-)-nicotine for binding to IgG2-F018: 56 nM tritium-labeled (S)-(-)-nicotine, IgG2-F018 50 nM, unlabeled compound 1 nM to 100 µM, acetylcholine even at a 4000 fold molar excess
Method: Figure 1. Specificity of IgG2-F018. The binding of tritium-labeled (-)-nicotine (56 nM) to IgG2-F018 (50 nM) was measured by equilibrium dialysis in the presence of increasing concentrations of unlabeled (-)-nicotine, (-)-cotinine or acetylcholine. Averages of two independent experiments are given with standard deviation.
as §1
Cross-reactivity of mAb IgG2-F018 to (-)-cotinine and acetylcholine was determined by co-incubation of 10 fold serial dilutions of these compounds (1 nM to 100 µM) with 56 nM tritium-labeled (S)-(-)-nicotine in the equilibrium dialysis chambers as described above (Figure 1).
as §2

[6] = molecular target: polyclonal antibodies against (S)-(-)-nicotine; conditions: read-out: affinity of polyclonal antibodies against (S)-(-)-nicotine; Maurer P. et al., 2005; cited from earlier work
[7] = molecular target: human monoclonal nicotine-specific antibody F018, scFv-Fc fusion (scFv SEQ ID NO:60; HCVR SEQ ID NO:24, LCVR SEQ ID NO:26); conditions: read-out: Dissociation constant Kd, (S)-(-)-nicotine; scFv-Fc 5.4 µg/ml in PBS/2% BSA; tritium-labeled (S)-(-)-nicotine 3 to 444 nM; 48-72 h; mean ± SD of at least 2 independent experiments
Method: as §1

[8] = molecular target: human monoclonal nicotine-specific antibody F063, scFv-Fc fusion (scFv SEQ ID NO:62; HCVR SEQ ID NO:28, LCVR SEQ ID NO:31); conditions: read-out: Dissociation constant Kd, (S)-(-)-nicotine; scFv-Fc 5.4 µg/ml in PBS/2% BSA; tritium-labeled (S)-(-)-nicotine 3 to 444 nM; 48-72 h; mean ± SD of at least 2 independent experiments
Method: as §1

[9] = molecular target: human monoclonal nicotine-specific antibody N049, scFv-Fc fusion (scFv SEQ ID NO:68; HCVR SEQ ID NO:39, LCVR SEQ ID NO:41); conditions: read-out: Dissociation constant Kd, (S)-(-)-nicotine; scFv-Fc 5.4 µg/ml in PBS/2% BSA; tritium-labeled (S)-(-)-nicotine 3 to 444 nM; 48-72 h; mean ± SD of at least 2 independent experiments
Method: as §1

[10] = molecular target: human monoclonal nicotine-specific antibody J004, scFv-Fc fusion (scFv SEQ ID NO:64; HCVR SEQ ID NO:33, LCVR SEQ ID NO:35); conditions: read-out: Dissociation constant Kd, (S)-(-)-nicotine; scFv-Fc 5.4 µg/ml in PBS/2% BSA; tritium-labeled (S)-(-)-nicotine 3 to 444 nM; 48-72 h; mean ± SD of at least 2 independent experiments
Method: as §1

[11] = molecular target: human monoclonal nicotine-specific antibody J042, scFv-Fc fusion (scFv SEQ ID NO:66; HCVR SEQ ID NO:28, LCVR SEQ ID NO:37); conditions: read-out: Dissociation constant Kd, (S)-(-)-nicotine; scFv-Fc 5.4 µg/ml in PBS/2% BSA; tritium-labeled (S)-(-)-nicotine 3 to 444 nM; 48-72 h; mean ± SD of at least 2 independent experiments
Method: as §1

[12] = molecular target: human monoclonal nicotine-specific antibody IgG2-I022 (HCVR SEQ ID NO:43, LCVR SEQ ID NO:45); conditions: read-out: Dissociation constant Kd, (S)-(-)-nicotine; IgG2 7.5 µg/ml in PBS/2% BSA; tritium-labeled (S)-(-)-nicotine 3 to 444 nM; 48-72 h; mean ± SD of at least 2 independent experiments
Method: as §1

[13] = molecular target: human monoclonal nicotine-specific antibody I022, scFv-Fc fusion (scFv SEQ ID NO:70; HCVR SEQ ID NO:43, LCVR SEQ ID NO:45); conditions: read-out: Dissociation constant Kd, (S)-(-)-nicotine; scFv-Fc 5.4 µg/ml in PBS/2% BSA; tritium-labeled (S)-(-)-nicotine 3 to 444 nM; 48-72 h; mean ± SD of at least 2 independent experiments
Method: as §1

[14] = molecular target: human monoclonal nicotine-specific antibody N038, scFv-Fc fusion (scFv SEQ ID NO:72; HCVR SEQ ID NO:47, LCVR SEQ ID NO:49); conditions: read-out: Dissociation constant Kd, (S)-(-)-nicotine; scFv-Fc 5.4 µg/ml in PBS/2% BSA; tritium-labeled (S)-(-)-nicotine 3 to 444 nM; 48-72 h; mean ± SD of at least 2 independent experiments
Method: as §1

[15] = molecular target: human monoclonal nicotine-specific antibody IgG2-N038 (HCVR SEQ ID NO:47, LCVR SEQ ID NO:49); conditions: read-out: Dissociation constant Kd, (S)-(-)-nicotine; IgG2 7.5 µg/ml in PBS/2% BSA; tritium-labeled (S)-(-)-nicotine 3 to 444 nM; 48-72 h; measured only once
Method: as §1

[16] = read-out: Dissociation constant Kd of antibody-(R)-(+)-nicotine interaction, competition with 111 nM tritium-labeled (S)-(-)-nicotine, unlabeled (R)-(+)-nicotine 1 nM to 100 µM, one-site competition model
[17] = read-out: Dissociation constant Kd, (S)-(-)-nicotine, IgG2 7.5 µg/ml in PBS/2% BSA, tritium-labeled (S)-(-)-nicotine 3 to 444 nM, 48-72 h, mean ± SD of at least 2 independent experiments

CN1CCC[C@@H]1c1cccnc1 [(R)-(+)-nicotine]
Kd [1, 16]: 0.0066 µM
Kd [2, 16]: 0.0126 µM
Kd [3, 16]: 0.0077 µM
Kd [4, 16]: 0.0105 µM
Kd ([5]; competition with 56 nM tritium-labeled (S)-(-)-nicotine, unlabeled (R)-(+)-nicotine 1 nM to 100 µM, one-site competition model, read-out: Dissociation constant Kd of antibody-(R)-(+)-nicotine interaction): 0.0031 µM

CN1CCC[C@H]1c1cccnc1 [(S)-(-)-nicotine]
Kd [6]: 0.03 to 0.07 µM
Kd [1, 17]: 0.0314 ± 0.013 µM
Kd [2, 17]: 0.0645 ± 0.0022 µM
Kd [3, 17]: 0.0302 ± 0.011 µM
Kd [4, 17]: 0.0356 ± 0.0035 µM
Kd [7]: 0.0115 ± 0.0015 µM
Kd [8]: 0.0705 ± 0.014 µM
Kd [9]: 0.0727 ± 0.0056 µM
Kd [10]: 0.0333 ± 0.002 µM
Kd [11]: 0.047 ± 0.0031 µM
Kd [12]: 0.0899 ± 0.0098 µM
Kd [13]: 0.0425 ± 0.017 µM
Kd [14]: 0.686 ± 0.058 µM
Kd [15]: 0.744 µM
Cross-reactivity: competition with tritium-labeled (S)-(-)-nicotine for binding to IgG2-F018 [5]: readily displaced
Kd ([5]; IgG2 7.5 µg/ml in PBS/2% BSA, tritium-labeled (S)-(-)-nicotine 3 to 444 nM, 48-72 h, mean ± SD of at least 2 independent experiments, read-out: Dissociation constant Kd, (S)-(-)-nicotine): 0.007 µM and 0.0074 µM

CN1C(=O)CC[C@H]1c1cccnc1 [(-)-cotinine]
Cross-reactivity: competition with tritium-labeled (S)-(-)-nicotine for binding to IgG2-F018 [5]: did not effectively compete
Binding strength relative to (S)-(-)-nicotine (fold less strongly), estimated from the IC50 observed ([5]; equilibrium dialysis competition with 56 nM tritium-labeled (S)-(-)-nicotine): about 1000 fold
